Structures can show the parent of a compound that is named as a salt.
How the values were obtained:
[1] = target: T1, recombinant human 6×His-tagged-BRM (bromodomain-only; aa. 1377-1486) (Homo sapiens, UniProt P51531); test: AlphaLISA competitive BRM binding assay; settings: 7 nM 6×His-BRM, 20 nM biotinylated probe
T1 construct: (bromodomain-only; aa; 1377-1486; NP_620614); made in house; host or cells: Escherichia coli
Description: AlphaLISA Competitive BRM Binding Assay
Compounds were serially diluted in 100% DMSO in 3-fold increments. An intermediate compound plate was created at 10% DMSO in AlphaLISA buffer (50 mM Hepes, pH 7.5, 50 mM NaCl, […] Brij-35, 0.1 mg/mL BSA) and then […] of compound transferred from the intermediate plate into a white, 384-OptiPlate (Perkin Elmer, #6007290). A solution of protein (recombinant human 6×His-tagged-BRM (bromodomain-only; aa. 1377-1486; NP_620614) expressed in Escherichia coli) and biotinylated probe are mixed and pre-incubated for 10 minutes. Following incubation, […] of protein/probe solution is added to each well of the 384-OptiPlate, resulting in final assay concentration of 7 nM protein (6×His-BRM) and 20 nM biotinylated probe. Compound and protein/probe solution were incubated at room temperature for 10 minutes. […] of anti-His conjugated AlphaLISA acceptor beads (PerkinElmer #AL128M), diluted 100× in AlphaLISA buffer, were added to each well of the assay plate. This addition was followed by a 10-minute incubation at room temperature, in the dark. Lastly, […] of streptavidin donor beads (PerkinElmer #6760002), diluted 100× in AlphaLISA buffer, were added to each well of the assay plate. Final assay plate was incubated for 15 minutes before read, signal is stable up to 4 hours after donor bead addition.
Assay plates were read using an Envision® multimode microplate reader (PerkinElmer #2105-0010) using the Europium/615 nm emission filter. Data is reported as percent displacement, 100% binding is based on the average fluorescent count (FC) of zero compound column and 0% binding is based on the average fluorescent count (FC) of zero protein (His-BRM) column. Percent displacement is calculated based on the following equation:
((100% Binding FC−Compound Well FC)/(100% Binding FC−0% Binding FC))*100
Data is fit using a 4-parameter non-linear regression analysis in GraphPad Prism.

BRM = target: T2, BRM (Homo sapiens, UniProt P51531); test: Western blot / In-Cell Western screen of BRM degradation in SW1573 cells; format: cell-based; settings: overnight (18-20 hours) treatment; for Dmax: read-out: Dmax (%) (% degraded)
T2 construct: In-Cell Western Screen of BRM Degradation in SW1573 Cells; endogenous in cells; host or cells: SW1573 cells
Outline: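 SW1573 cells treated overnight (18-20 hours) with compound at 0.1% final DMSO. BRM measured either by Western blot of RIPA lysates with alpha-tubulin control and chemiluminescent detection, or by In-Cell Western on fixed, permeabilized cells with LI-COR dual-channel read against alpha-tubulin; Dmax and DC50 derived.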

| Structure (SMILES) | Kd [1] [nM] | DC50 (BRM) [nM] | Dmax (BRM) [%] |
| --- | --- | --- | --- |
| COC/C=C/c1cnc2nc(-c3ccccc3O)cn2c1 [BRM17, 2-[6-[(E)-3-methoxyprop-1-enyl]imidazo[1,2-a]pyrimidin-2-yl]phenol] | 2500 to 10000 |  |  |
| CN1C2CCC1CN(c1cc(N)nc3nc(-c4ccccc4O)cn13)C2 [BRM10] | ≥ 10000 |  |  |
| Nc1ccn2cc(-c3ccccc3O)nc2n1 [BRM2] | < 500 |  |  |
| Nc1nc2nc(-c3ccccc3O)cn2cc1C#Cc1ccncc1 [BRM5] | 2500 to 10000 |  |  |
| Nc1cc(C#Cc2ccncc2)n2cc(-c3ccccc3O)nc2n1 [BRM9] | ≥ 10000 |  |  |
| CN1CC2CCC(C1)N2c1cnc2nc(-c3ccccc3O)cn2c1 [BRM15, 2-[6-(3-methyl-3,8-diazabicyclo[3.2.1]octan-8-yl)imidazo[1,2-a]pyrimidin-2-yl] phenol] | 2500 to 10000 |  |  |
| COC/C=C/c1cn2cc(-c3ccccc3O)nc2nc1N [BRM19, 2-[7-amino-6-[(E)-3-methoxyprop-1-enyl]imidazo [1,2-a]pyrimidin-2-yl]phenol] | < 500 |  |  |
| Cn1cc(-c2cnc3nc(-c4ccccc4O)cn3c2)cn1 [BRM16, 2-[6-(1-methylpyrazol-4-yl)imidazo[1,2-a]pyrimidin-2-yl] phenol] | 500 to 2500 |  |  |
| Oc1ccn2cc(-c3ccccc3O)nc2n1 [BRM4, 2-(2-hydroxyphenyl) imidazo[1,2-a]pyrimidin-7-ol trifluoroacetate] | ≥ 10000 |  |  |
| Oc1ccccc1-c1cn2cc(C#Cc3ccncc3)cnc2n1 [BRM11] | ≥ 10000 |  |  |
| Cn1cc(-c2cc(N)nc3nc(-c4ccccc4O)cn23)cn1 [BRM8] | ≥ 10000 |  |  |
| C#Cc1cn2cc(-c3ccccc3O)nc2nc1N [BRM3] | < 500 |  |  |
| CN1CCN(c2cc(N)nc3nc(-c4ccccc4O)cn23)CC1 [BRM7] | ≥ 10000 |  |  |
| C#Cc1cnc2nc(-c3ccccc3O)cn2c1 [BRM12] | ≥ 10000 |  |  |
| C#Cc1cc(N)nc2nc(-c3ccccc3O)cn12 [BRM6] | 2500 to 10000 |  |  |
| COCCOCC#Cc1cn2cc(-c3ccccc3O)nc2nc1N [BRM13] | < 500 |  |  |
| CN1CCN(c2cnc3nc(-c4ccccc4O)cn3c2)CC1 [BRM14, 2-[6-(4-methylpiperazin-1-yl)imidazo[1,2-a]pyrimidin-2-yl]phenol] | 500 to 2500 |  |  |
| Cn1cc(-c2cn3cc(-c4ccccc4O)nc3nc2N)cn1 [BRM18, 2-[7-amino-6-(1-methylpyrazol-4-yl)imidazo[1,2-a]pyrimidin-2-yl]phenol] | < 500 |  |  |
| Oc1ccccc1-c1cn2cccnc2n1 [BRM1] | 500 to 2500 |  |  |
| Cc1ncsc1-c1ccc([C@H](C)NC(=O)[C@@H]2C[C@@H](O)CN2C(=O)[C@@H](c2cc(OCCN3CCN(CCOc4cc(N5CCN(c6cc(-c7ccccc7O)nnc6N)CC56COC6)ccn4)CC3)no2)C(C)C)cn1 [Compound 17, (2S,4R)-1-[(2R)-2-{3-[2-(4-{2-[(4-{8-[3-amino-6-(2-hydroxyphenyl)pyridazin-4-yl]-2-oxa-5,8-diazaspiro[3.5]nonan-5-yl}pyridin-2-yl)oxy]ethyl}piperazin-1-yl)ethoxy]-1,2-oxazol-5-yl}-3-methylbutanoyl]-4-hydroxy-N-[(1S)-1-[6-(4-methyl-1,3-thiazol-5-yl)pyridin-3-yl]ethyl]pyrrolidine-2-carboxamide] |  | 2.5 to 10 | > 75 |
| Cc1ncsc1-c1ccc([C@H](C)NC(=O)[C@@H]2C[C@@H](O)CN2C(=O)[C@@H](c2cc(N3CCC(CN4CCC(O[C@H]5C[C@H](n6ccc(CN7C8CCC7CN(c7cc(-c9ccccc9O)nnc7N)C8)n6)C5)CC4)CC3)no2)C(C)C)cc1 [Compound 14, (2S,4R)-4-hydroxy-N-[(1S)-1-[4-(4-methyl-1,3-thiazol-5-yl)phenyl]ethyl]-1-[(2R)-3-methyl-2-{3-[4-({4-[(1r,3r)-3-[3-({3-[3-amino-6-(2-hydroxyphenyl)pyridazin-4-yl]-3,8-diazabicyclo[3.2.1]octan-8-yl}methyl)-1H-pyrazol-1-yl]cyclobutoxy]piperidin-1-yl}methyl)piperidin-1-yl]-1,2-oxazol-5-yl}butanoyl]pyrrolidine-2-carboxamide] |  | ≥ 30 |  |
| CC(C)[C@@H](C(=O)N1C[C@H](O)C[C@H]1C(=O)N[C@@H](C)c1ccc(-c2ccnn2C)cc1)c1cc(N2CCC(CN3CCC(O[C@H]4C[C@H](OC/C=C/c5cn6cc(-c7ccccc7O)nc6nc5N)C4)CC3)CC2)no1 [Compound 45, (2S,4R)-4-hydroxy-N-[(1S)-1-[4-(1-methyl-1H-pyrazol-5-yl)phenyl]ethyl]-1-[(2R)-3-methyl-2-{3-[4-({4-[(1r,3r)-3-{[(2E)-3-[7-amino-2-(2-hydroxyphenyl)imidazo[1,2-a]pyrimidin-6-yl]prop-2-en-1-yl]oxy}cyclobutoxy]piperidin-1-yl}methyl)piperidin-1-yl]-1,2-oxazol-5-yl}butanoyl]pyrrolidine-2-carboxamide] |  | < 2.5 | > 75 |

From US20250064945A1 (Arvinas Operations, Inc., priority 2021, published 2025)
